Results from publication PMC5350031 (Circulation, 2017).
Read-outs that look alike come from different tables or passages of the source.

Tests used:
[1] = tested on: Tm-E54K and NTG mice; assay: Echocardiography, cardiac function and morphology after three months treatment; type: in vivo, mouse
[2] = tested on: hearts of Tm-E54K and NTG mice; assay: Histology, cell cross-sectional area; type: in vivo, mouse
[3] = tested on: detergent-extracted fiber bundles of NTG and Tm-E54K mice; type: in vivo, mouse; conditions: 3 months treatment; for Hill Coefficient / Max. Tension / pCa50 (Ca^2+ concentration at half-maximal tension): Mean ± SEM, n = 6–8 fibers
[4] = tested on: myofilament proteins (MLC2v, TnT, cTnI, cMyBP-C); assay: Myofilament protein phosphorylation in hearts of chronically treated mice; type: in vivo, mouse
[5] = tested on: Akt, GSK-3β, β-catenin, phospholamban, ERK1/2, RSK3, SRF, MYPT1/2, SERCA2; assay: Western blot of signaling pathways in hearts of chronically treated mice; type: in vivo, mouse
[6] = tested on: β-myosin heavy chain (β-MHC); assay: β-MHC protein expression in hearts of chronically treated mice; type: in vivo, mouse; conditions: Tm-E54K hearts, chronic treatment; untreated Tm-E54K approximately 30%
[7] = tested on: RSK3, MYPT1/2 and SRF phosphorylation in neonatal rat ventricular myocytes (NRVM); type: cell-based
[8] = Tm-E54K hearts, N = 4–6 hearts per group

## CCCCc1nc(Cl)c(CO)n1Cc1ccc(-c2ccccc2-c2nn[nH]n2)cc1 [losartan]
[1]
  cardiac output (in words): did not have improved cardiac output
  heart rate (in words): nor an increase in heart rate
[1]; vs. Tm-E54K untreated
  systolic / cardiac function (in words): no changes in cardiac function
[2]; NTG mice
  cross-sectional cell area (in words): significant decrease
[2]; Tm-E54K mice
  cross-sectional cell area (in words): no effect
[3]; NTG mice
  maximum tension generation (in words): decrease in maximum tension generation
  Hill Coefficient: 2.10 ± 0.12
  Max. Tension: 25.73 ± 3.31 ^† mN/mm^2
  pCa50 (Ca^2+ concentration at half-maximal tension): significant decrease in pCa50 compared to both TRV067 and untreated NTG groups
[3]; NTG mice, listed as Losartan
  pCa50 (Ca^2+ concentration at half-maximal tension): 5.60 ± 0.02 ^†
[3]; Tm-E54K mice
  maximum tension generation (in words): no significant effect
  Hill Coefficient: 2.00 ± 0.08
  Max. Tension: 27.29 ± 1.07 ^∥ mN/mm^2
[4]; Phos-Tag gel electrophoresis, NTG mice, vs. NTG untreated
  MLC2v phosphorylation (in words): significantly decreased
[4]; ProQ diamond, Tm-E54K mice, vs. TRV067-treated Tm-E54K, N = 4–6 hearts per group
  TnT phosphorylation (in words): significant decrease
[4]; mice treated with TRV067 or losartan
  cMyBP-C phosphorylation at PKA sites (in words): did not observe an increase in other PKA phosphorylatable sites, such as cMyBP-C
[5]; NTG and Tm-E54K mice
  MYPT1/2 phosphorylation (in words): no effect
  RSK3 phosphorylation (in words): no effect
  SRF phosphorylation (in words): no effect
[5]; NTG mice, vs. untreated controls
  phospholamban (PLN) phosphorylation at S16 (in words): increase
[5]; Tm-E54K and NTG mice, vs. untreated
  SERCA2 protein expression (in words): no effect
[5]; [8]
  Akt phosphorylation at S473 (in words): decreased
  GSK-3β phosphorylation at S9 (in words): decreased
  β-catenin phosphorylation (in words): increase
[5]; Tm-E54K mice
  phospholamban (PLN) phosphorylation at S16 (in words): increase
  phospholamban (PLN) phosphorylation at T17 (in words): not the T17 site
[6]
  β-MHC expression, % of the isoform content: approximately 10%
[7]
  MYPT1/2 phosphorylation (in words): no effect
  RSK3 phosphorylation (in words): no effect
  SRF phosphorylation (in words): no effect
